In the assay the target is Nav 1.7 (Homo sapiens (Human), UniProt Q15858). Put plainly: in-vitro Nav 1.7 PX (IC50). It is filed as cell-based.

Like-named read-outs stand apart in the source and are kept apart here.

Nav 1.7, sequence (Q15858 whole entry): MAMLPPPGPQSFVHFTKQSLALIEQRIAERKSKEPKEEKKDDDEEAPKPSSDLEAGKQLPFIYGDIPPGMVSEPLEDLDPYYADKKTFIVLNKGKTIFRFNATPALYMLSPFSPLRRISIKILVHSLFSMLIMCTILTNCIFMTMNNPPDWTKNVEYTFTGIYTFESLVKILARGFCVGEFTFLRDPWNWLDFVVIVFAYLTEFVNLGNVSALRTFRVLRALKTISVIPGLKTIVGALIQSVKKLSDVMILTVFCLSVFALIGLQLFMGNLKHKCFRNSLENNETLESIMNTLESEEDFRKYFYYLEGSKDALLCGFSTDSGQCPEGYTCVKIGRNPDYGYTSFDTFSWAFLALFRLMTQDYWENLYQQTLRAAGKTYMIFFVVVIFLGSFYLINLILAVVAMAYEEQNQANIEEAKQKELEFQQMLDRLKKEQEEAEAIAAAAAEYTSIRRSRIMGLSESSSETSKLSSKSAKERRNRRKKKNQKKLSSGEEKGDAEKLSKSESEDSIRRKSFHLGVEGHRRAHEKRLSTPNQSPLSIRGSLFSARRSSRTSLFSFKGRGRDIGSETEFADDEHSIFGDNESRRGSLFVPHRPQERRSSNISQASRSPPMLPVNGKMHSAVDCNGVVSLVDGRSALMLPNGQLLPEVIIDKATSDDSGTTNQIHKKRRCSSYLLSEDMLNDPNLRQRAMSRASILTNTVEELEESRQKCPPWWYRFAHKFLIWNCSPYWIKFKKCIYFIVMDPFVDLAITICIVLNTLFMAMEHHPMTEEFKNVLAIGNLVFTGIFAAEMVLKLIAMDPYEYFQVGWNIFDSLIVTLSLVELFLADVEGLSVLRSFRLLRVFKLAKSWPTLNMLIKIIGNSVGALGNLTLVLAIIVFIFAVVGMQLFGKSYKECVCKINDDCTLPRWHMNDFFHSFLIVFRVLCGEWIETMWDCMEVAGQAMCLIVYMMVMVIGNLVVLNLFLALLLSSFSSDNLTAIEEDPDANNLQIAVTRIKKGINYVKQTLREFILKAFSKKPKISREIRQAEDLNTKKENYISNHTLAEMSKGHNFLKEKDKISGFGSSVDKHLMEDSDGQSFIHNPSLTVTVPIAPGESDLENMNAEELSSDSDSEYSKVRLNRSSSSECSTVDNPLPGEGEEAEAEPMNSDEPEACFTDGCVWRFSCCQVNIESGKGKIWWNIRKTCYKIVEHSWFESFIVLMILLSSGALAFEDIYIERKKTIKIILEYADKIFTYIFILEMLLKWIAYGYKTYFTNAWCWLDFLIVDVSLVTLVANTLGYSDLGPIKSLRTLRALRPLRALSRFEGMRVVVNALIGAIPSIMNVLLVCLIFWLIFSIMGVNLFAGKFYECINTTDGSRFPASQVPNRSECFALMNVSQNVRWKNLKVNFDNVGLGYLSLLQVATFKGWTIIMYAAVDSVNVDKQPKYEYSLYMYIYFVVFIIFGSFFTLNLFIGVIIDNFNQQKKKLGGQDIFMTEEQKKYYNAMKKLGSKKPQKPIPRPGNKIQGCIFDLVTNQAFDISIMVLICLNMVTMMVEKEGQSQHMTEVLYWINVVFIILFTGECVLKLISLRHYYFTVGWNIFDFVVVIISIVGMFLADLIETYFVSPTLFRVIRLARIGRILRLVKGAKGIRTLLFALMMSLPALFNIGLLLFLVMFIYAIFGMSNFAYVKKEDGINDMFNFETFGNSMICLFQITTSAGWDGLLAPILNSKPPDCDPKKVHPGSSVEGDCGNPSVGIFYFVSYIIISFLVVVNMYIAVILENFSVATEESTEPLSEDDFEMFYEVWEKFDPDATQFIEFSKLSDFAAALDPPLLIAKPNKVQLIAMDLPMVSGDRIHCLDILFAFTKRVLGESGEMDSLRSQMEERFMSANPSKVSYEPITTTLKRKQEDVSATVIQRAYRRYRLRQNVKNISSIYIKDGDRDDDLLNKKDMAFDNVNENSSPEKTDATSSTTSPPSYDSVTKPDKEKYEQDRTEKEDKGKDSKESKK

Regarding `COc1nc(OCC2CCCC2)c(Cl)cc1-n1c(=O)ccc2cc(S(=O)(=O)Nc3ccon3)ccc21` [Example 824, 1-(5-chloro-6-(cyclopentylmethoxy)-2-methoxy-3-pyridinyl)-N-3-isoxazolyl-2-oxo-1,2-dihydro-6-quinolinesulfonamide], the IC50 (in-vitro Nav 1.7 PX data) was 0.217 µM.

With `COc1cc(C[C@H]2CCCCO2)c(F)cc1-n1c(=O)ccc2cc(S(=O)(=O)Nc3ccon3)ccc21` [Example 1133, 1-(5-fluoro-2-methoxy-4-((2R)-tetrahydro-2H-pyran-2-ylmethyl)phenyl)-N-3-isoxazolyl-2-oxo-1,2-dihydro-6-quinolinesulfonamide, 1-(5-fluoro-2-methoxy-4-((2S)-tetrahydro-2H-pyran-2-ylmethyl)phenyl)-N-3-isoxazolyl-2-oxo-1,2-dihydro-6-quinolinesulfonamide], for the setting “in-vitro Nav 1.7 PX data”, the IC50 is 2.26 µM. The compound `COc1cc(Br)c(F)cc1-n1c(=O)ccc2cc(S(=O)(=O)Nc3cc(OCC4CCC4)ncn3)ccc21` (atropisomer, axis not shown; (P)) [Example 1184, (P)-1-(4-bromo-5-fluoro-2-methoxyphenyl)-N-(6-(cyclobutylmethoxy)-4-pyrimidinyl)-2-oxo-1,2-dihydro-6-quinolinesulfonamide] yielded an IC50 of 3.36 µM. For `COc1cc(-c2ccc(C(F)(F)F)cc2)c(F)cc1-n1c(=O)ccc2cc(S(=O)(=O)Nc3cccnn3)ccc21` [Example 795, 1-(2-fluoro-5-methoxy-4′-(trifluoromethyl)-4-biphenylyl)-2-oxo-N-3-pyridazinyl-1,2-dihydro-6-quinolinesulfonamide], the IC50 (in-vitro Nav 1.7 PX data) turned out to be 0.031 µM. The compound `COc1cc(-c2cccc(C)c2)c(F)cc1-n1c(=O)ccc2cc(S(=O)(=O)Nc3ncc(F)cn3)ccc21` [Example 1109, 1-(2-fluoro-5-methoxy-3′-methyl-4-biphenylyl)-N-(5-fluoro-2-pyrimidinyl)-2-oxo-1,2-dihydro-6-quinolinesulfonamide] returned an IC50 (in-vitro Nav 1.7 PX data) of 0.02 µM. For the compound `COc1ccc(-c2ccc(Cl)c(C)c2)cc1-n1c(=O)ccc2cc(S(=O)(=O)Nc3ccon3)ccc21` [Example 872, 1-(4′-chloro-4-methoxy-3′-methyl-3-biphenylyl)-N-3-isoxazolyl-2-oxo-1,2-dihydro-6-quinolinesulfonamide], the IC50 (in-vitro Nav 1.7 PX data) turned out to be 11.6 µM. `COc1cc(-c2cc(F)cc(C(F)(F)F)c2)ccc1-n1c(=O)ccc2cc(S(=O)(=O)Nc3cnccn3)ccc21` [Example 1094, 1-(3′-fluoro-3-methoxy-5′-(trifluoromethyl)-4-biphenylyl)-2-oxo-N-2-pyrazinyl-1,2-dihydro-6-quinolinesulfonamide] displayed an IC50 (in-vitro Nav 1.7 PX data) of 0.069 µM.

In the case of `COc1cc(-c2cc(F)c(F)cc2F)c(F)cc1-n1c(=O)ccc2cc(S(=O)(=O)Nc3ccon3)ccc21` (atropisomer, axis not shown; (M)) [Example 517, (M)-N-3-isoxazolyl-2-oxo-1-(2,2′,4′,5′-tetrafluoro-5-methoxy-4-biphenylyl)-1,2-dihydro-6-quinolinesulfonamide], the half-maximal inhibitory concentration (IC50) (in-vitro PatchXpress (PX)) was determined as 0.021 µM. Regarding `COc1ccc(-c2cccc(Cl)c2F)cc1-n1c(=O)ccc2cc(S(=O)(=O)Nc3ccon3)ccc21` [Example 887, 1-(3′-chloro-2′-fluoro-4-methoxy-3-biphenylyl)-N-3-isoxazolyl-2-oxo-1,2-dihydro-6-quinolinesulfonamide], where the note is “in-vitro Nav 1.7 PX data”, the IC50 worked out at 0.03 µM.

Compound `COc1cc(-c2ccc(F)cc2)c(F)cc1-n1c(=O)ccc2cc(S(=O)(=O)Nc3cccnn3)ccc21` [Example 770, 1-(2,4′-difluoro-5-methoxy-4-biphenylyl)-2-oxo-N-3-pyridazinyl-1,2-dihydro-6-quinolinesulfonamide] returned an IC50 (in-vitro Nav 1.7 PX data) of 0.033 µM. With `COc1cc(F)cc(-c2ccc(OC)c(-n3c(=O)ccc4cc(S(=O)(=O)Nc5ccon5)ccc43)c2)c1` [Example 853, 1-(3′-fluoro-4,5′-dimethoxy-3-biphenylyl)-N-3-isoxazolyl-2-oxo-1,2-dihydro-6-quinolinesulfonamide], the midpoint of inhibition (in-vitro Nav 1.7 PX data), the IC50, lay at 0.06 µM. Same read-out and setting: in the case of `COc1ccc(Cl)cc1-c1cc(OC)c(-n2c(=O)ccc3cc(S(=O)(=O)Nc4ccon4)ccc32)cc1F` [Example 744, 1-(5′-chloro-2-fluoro-2′,5-dimethoxy-4-biphenylyl)-N-3-isoxazolyl-2-oxo-1,2-dihydro-6-quinolinesulfonamide] it was 0.007 µM. On the same count and under the same terms, in the case of `COc1cc(-c2ccc(C(F)(F)F)cc2)c(F)cc1-n1c(=O)ccc2cc(S(=O)(=O)Nc3ccnc(C)n3)ccc21` [Example 799, 1-(2-fluoro-5-methoxy-4′-(trifluoromethyl)-4-biphenylyl)-N-(2-methyl-4-pyrimidinyl)-2-oxo-1,2-dihydro-6-quinolinesulfonamide] it was 0.059 µM.

Regarding `COc1cc(-c2cc(Cl)ccc2F)ccc1-n1c(=O)ccc2cc(S(=O)(=O)Nc3ccon3)ccc21` [Example 1034, 1-(5′-chloro-2′-fluoro-3-methoxy-4-biphenylyl)-N-3-isoxazolyl-2-oxo-1,2-dihydro-6-quinolinesulfonamide], the IC50 (in-vitro Nav 1.7 PX data (PatchXpress)) came to 0.01 µM. Take `COc1ccc(-c2cc(OC)c(-n3c(=O)ccc4cc(S(=O)(=O)Nc5ccon5)ccc43)cc2F)cc1` [Example 954, 1-(2-fluoro-4′,5-dimethoxy-4-biphenylyl)-N-3-isoxazolyl-2-oxo-1,2-dihydro-6-quinolinesulfonamide]: the IC50 (in-vitro Nav 1.7 PX data) is 0.071 µM.

Regarding `COc1ccc(-c2cccc(Cl)c2C)cc1-n1c(=O)ccc2cc(S(=O)(=O)Nc3ccon3)ccc21` [Example 891, 1-(3′-chloro-4-methoxy-2′-methyl-3-biphenylyl)-N-3-isoxazolyl-2-oxo-1,2-dihydro-6-quinolinesulfonamide], the IC50 (in-vitro Nav 1.7 PX data) came to 0.02 µM. In turn, `COc1cc(-c2ccc(Cl)c(F)c2)c(F)cc1-n1c(=O)ccc2cc(S(=O)(=O)Nc3ccon3)ccc21` (atropisomer, axis not shown; (P)) [Example 503, (P)-1-(4′-chloro-2,3′-difluoro-5-methoxy-4-biphenylyl)-N-3-isoxazolyl-2-oxo-1,2-dihydro-6-quinolinesulfonamide] gave a 50% inhibitory concentration (IC50) (in-vitro PatchXpress (PX)) of 1.1 µM. Take `COc1nc(O[C@H]2C[C@H]3CC[C@@H]2C3)c(Cl)cc1-n1c(=O)ccc2cc(S(=O)(=O)Nc3ccon3)ccc21` [Example 1223, 1-(6-((1R,2S,4S)-bicyclo[2.2.1]hept-2-yloxy)-5-chloro-2-methoxy-3-pyridinyl)-N-3-isoxazolyl-2-oxo-1,2-dihydro-6-quinolinesulfonamide]: the half-inhibitory concentration (IC50) amounted to 0.416 µM.

In turn, `COc1cc(-c2cc(F)cc(C(F)(F)F)c2)ccc1-n1c(=O)ccc2cc(S(=O)(=O)Nc3ccnc(C)n3)ccc21` [Example 1100, 1-(3′-fluoro-3-methoxy-5′-(trifluoromethyl)-4-biphenylyl)-N-(2-methyl-4-pyrimidinyl)-2-oxo-1,2-dihydro-6-quinolinesiilfonamide] gave an IC50 (in-vitro Nav 1.7 PX data) of 0.037 µM. With `COc1cc(-c2ccc(Cl)c(C)c2)c(C)cc1-n1c(=O)ccc2cc(S(=O)(=O)Nc3ccon3)ccc21` (atropisomer, axis not shown; (P)) [Example 421, (P)-1-(4′-chloro-5-methoxy-2,3′-dimethyl-4-biphenylyl)-N-3-isoxazolyl-2-oxo-1,2-dihydro-6-quinolinesulfonamide], 0.016 µM corresponded to half-maximal inhibition (IC50). The compound `COc1cc(-c2ccc(Cl)cc2C)c(F)cc1-n1c(=O)ccc2cc(S(=O)(=O)Nc3ccon3)ccc21` [Example 742, 1-(4′-chloro-2-fluoro-5-methoxy-2′-methyl-4-biphenylyl)-N-3-isoxazolyl-2-oxo-1,2-dihydro-6-quinolinesulfonamide] registered an IC50 (in-vitro Nav 1.7 PX data) of 0.007 µM. For `COc1cc(-c2cc(F)cc(Cl)c2)c(F)cc1-n1c(=O)ccc2cc(S(=O)(=O)Nc3ccnc(C)n3)ccc21` [Example 934, 1-(3′-chloro-2,5′-difluoro-5-methoxy-4-biphenylyl)-N-(2-methyl-4-pyrimidinyl)-2-oxo-1,2-dihydro-6-quinolinesulfonamide], the 50% inhibitory concentration (IC50) (in-vitro Nav 1.7 PX data) was 0.006 µM.

As to `COc1nc(OCc2ccc(F)c(F)c2)c(Cl)cc1-n1c(=O)ccc2cc(S(=O)(=O)Nc3ccon3)ccc21` [Example 1217, 1-(5-chloro-6-((3,4-difluorobenzyl)oxy)-2-methoxy-3-pyridinyl)-N-3-isoxazolyl-2-oxo-1,2-dihydro-6-quinolinesulfonamide], the IC50 was 0.096 µM. As for `COc1cc([C@H]2CC[C@@H](C)CC2)c(F)cc1-n1c(=O)ccc2cc(S(=O)(=O)Nc3ccon3)ccc21` [Example 1083, 1-(5-fluoro-2-methoxy-4-(cis-4-methylcyclohexyl)phenyl)-N-3-isoxazolyl-2-oxo-1,2-dihydro-6-quinolinesulfonamide, 1-(5-fluoro-2-methoxy-4-(trans-4-methylcyclohexyl)phenyl)-N-3-isoxazolyl-2-oxo-1,2-dihydro-6-quinolinesulfonamide], half-maximal inhibition (in-vitro Nav 1.7 PX data) (IC50) was put at 0.01 µM. As to `COc1cc(-c2ccncc2)c(F)cc1-n1c(=O)ccc2cc(S(=O)(=O)Nc3ccon3)ccc21` [Example 505, 1-(5-fluoro-2-methoxy-4-(4-pyridinyl)phenyl)-N-3-isoxazolyl-2-oxo-1,2-dihydro-6-quinolinesulfonamide], the IC50 (in-vitro PatchXpress (PX)) was determined as 1.8 µM. As to `COc1cc(-c2cccc(C(F)(F)F)c2)c(Cl)cc1-n1c(=O)ccc2cc(S(=O)(=O)Nc3ccon3)ccc21` (atropisomer, axis not shown; (M)) [Example 534, (M)-1-(2-chloro-5-methoxy-3′-(trifluoromethyl)-[1,1′-biphenyl]-4-yl)-N-(isoxazol-3-yl)-2-oxo-1,2-dihydroquinoline-6-sulfonamide], the concentration for half-maximal inhibition (IC50) came out at 1.35 µM. Where the note is “in-vitro Nav 1.7 PX data”, `COc1cc(-c2ccc(Cl)cc2)c(F)cc1-n1c(=O)ccc2cc(S(=O)(=O)Nc3ncc(F)cn3)ccc21` [Example 750, 1-(4′-chloro-2-fluoro-5-methoxy-4-biphenylyl)-N-(5-fluoro-2-pyrimidinyl)-2-oxo-1,2-dihydro-6-quinolinesulfonamide] yielded an IC50 of 0.01 µM. With `COc1cc(-c2ccc(C)c(F)c2)c(F)cc1-n1c(=O)ccc2cc(S(=O)(=O)Nc3ccnc(C)n3)ccc21` [Example 1124, 1-(2,3′-difluoro-5-methoxy-4′-methyl-4-biphenylyl)-N-(2-methyl-4-pyrimidinyl)-2-oxo-1,2-dihydro-6-quinolinesulfonamide], under “in-vitro Nav 1.7 PX data”, half-maximal inhibition (IC50) was put at 0.106 µM.

Usually IC50 stands for the concentration that gives 50% inhibition.

The values above are taken from patent publication US9212182B2, “Bicyclic sulfonamide compounds as sodium channel inhibitors” (AMGEN INC., priority 2013, dated 2015).
